According to ChEMBL document CHEMBL1201862, “PubChem BioAssay data set” (2004):
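All cell lines were grown in 96-well plates and treated with compound for 48 hours. Abbreviation: GI50, concentration required for 50% inhibition of growth.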 Calls of active or inactive are those of the source. No stated cut-off is given here; in the data, active = GI50 up to about 1.1 µM and inactive = higher.

Assays:
Test in all cases: growth of human tumour cells (NCI), 48 h
T47D = test system: T47D
KM12 = test system: KM12
DU-145 = test system: DU-145
TK-10 = test system: TK-10
HT-29 = test system: HT-29
Malme-3M = test system: Malme-3M
SK-MEL-5 = test system: SK-MEL-5
MDA-MB-435 = test system: MDA-MB-435
ACHN = test system: ACHN
K562 = test system: K562
MDA-N = test system: MDA-N
U-251 = test system: U-251
OVCAR-5 = test system: OVCAR-5
SN12C = test system: SN12C
UO-31 = test system: UO-31
OVCAR-8 = test system: OVCAR-8
SF-539 = test system: SF-539
OVCAR-4 = test system: OVCAR-4
NCI/ADR-RES = test system: NCI/ADR-RES
786-0 = test system: 786-0
SNB-19 = test system: SNB-19
EKVX = test system: EKVX
SW-620 = test system: SW-620
CAKI-1 = test system: CAKI-1
HCT-116 = test system: HCT-116
MDA-MB-231 = test system: MDA-MB-231
LOX IMVI = test system: LOX IMVI
SF-295 = test system: SF-295
UACC-62 = test system: UACC-62
NCI-H460 = test system: NCI-H460
SK-OV-3 = test system: SK-OV-3
SF-268 = test system: SF-268
HCC 2998 = test system: HCC 2998
PC-3 = test system: PC-3
SNB-75 = test system: SNB-75
MCF7 = test system: MCF7
HL-60 = test system: HL-60
HOP-92 = test system: HOP-92
A549 = test system: A549
MOLT-4 = test system: MOLT-4
Hs-578T = test system: Hs-578T
CCRF-CEM = test system: CCRF-CEM
RPMI-8226 = test system: RPMI-8226
SK-MEL-28 = test system: SK-MEL-28
NCI-H23 = test system: NCI-H23
NCI-H226 = test system: NCI-H226
A498 = test system: A498
COLO 205 = test system: COLO 205
HCT-15 = test system: HCT-15
SK-MEL-2 = test system: SK-MEL-2
BT-549 = test system: BT-549
UACC-257 = test system: UACC-257
NCI-H522 = test system: NCI-H522
IGROV-1 = test system: IGROV-1
OVCAR-3 = test system: OVCAR-3
M14 = test system: M14
RXF 393 = test system: RXF 393
HOP-62 = test system: HOP-62

COc1cc2cc3c4cc(OC)c(OC)cc4cc[n+]3c(C)c2cc1OC [CORALYNE]
GI50 (T47D): > 100 µM (inactive) | GI50 (KM12): 88.7 µM (inactive) | GI50 (DU-145): > 100 µM (inactive) | GI50 (TK-10): > 100 µM (inactive) | GI50 (HT-29): 77.4 µM (inactive) | GI50 (Malme-3M): 60.1 µM (inactive) | GI50 (SK-MEL-5): 72.1 µM (inactive) | GI50 (MDA-MB-435): > 100 µM (inactive) | GI50 (ACHN): > 100 µM (inactive) | GI50 (K562): 91.4 µM (inactive) | GI50 (MDA-N): > 100 µM (inactive) | GI50 (U-251): 9.59 µM (inactive) | GI50 (OVCAR-5): > 100 µM (inactive) | GI50 (SN12C): 5.74 µM (inactive) | GI50 (UO-31): > 100 µM (inactive) | GI50 (OVCAR-8): > 100 µM (inactive) | GI50 (SF-539): 41.7 µM (inactive) | GI50 (OVCAR-4): 67.5 µM (inactive) | GI50 (NCI/ADR-RES): > 100 µM (inactive) | GI50 (786-0): 15.6 µM (inactive) | GI50 (SNB-19): 13.4 µM (inactive) | GI50 (EKVX): 60.7 µM (inactive) | GI50 (SW-620): 58.7 µM (inactive) | GI50 (CAKI-1): 67.1 µM (inactive) | GI50 (HCT-116): > 100 µM (inactive) | GI50 (MDA-MB-231): > 100 µM (inactive) | GI50 (LOX IMVI): > 100 µM (inactive) | GI50 (SF-295): 28.6 µM (inactive) | GI50 (UACC-62): 23.4 µM (inactive) | GI50 (NCI-H460): 38.9 µM (inactive) | GI50 (SK-OV-3): > 100 µM (inactive) | GI50 (SF-268): 1.96 µM (inactive) | GI50 (HCC 2998): 42.7 µM (inactive) | GI50 (PC-3): > 100 µM (inactive) | GI50 (SNB-75): 10.2 µM (inactive) | GI50 (MCF7): > 100 µM (inactive) | GI50 (HL-60): > 100 µM (inactive) | GI50 (HOP-92): > 100 µM (inactive) | GI50 (A549): > 100 µM (inactive) | GI50 (MOLT-4): > 100 µM (inactive) | GI50 (Hs-578T): 24.9 µM (inactive) | GI50 (CCRF-CEM): > 100 µM (inactive) | GI50 (RPMI-8226): > 100 µM (inactive) | GI50 (SK-MEL-28): > 100 µM (inactive) | GI50 (NCI-H23): > 100 µM (inactive) | GI50 (NCI-H226): 30.4 µM (inactive) | GI50 (A498): 6.05 µM (inactive) | GI50 (COLO 205): 47.3 µM (inactive) | GI50 (HCT-15): 48.2 µM | GI50 (SK-MEL-2): > 100 µM (inactive) | GI50 (BT-549): 10.8 µM (inactive) | GI50 (UACC-257): 35.4 µM (inactive) | GI50 (NCI-H522): 40 µM (inactive) | GI50 (IGROV-1): 37.3 µM (inactive) | GI50 (OVCAR-3): > 100 µM (inactive)

CC(=O)Nc1ccc(OC/C(N)=N/NC(=O)c2ccncc2)cc1
GI50 (T47D): > 100 µM (inactive) | GI50 (KM12): > 100 µM (inactive) | GI50 (DU-145): > 100 µM (inactive) | GI50 (TK-10): > 100 µM (inactive) | GI50 (HT-29): > 100 µM (inactive) | GI50 (MDA-MB-435): > 100 µM (inactive) | GI50 (ACHN): > 100 µM (inactive) | GI50 (K562): > 100 µM (inactive) | GI50 (MDA-N): > 100 µM (inactive) | GI50 (M14): > 100 µM (inactive) | GI50 (U-251): > 100 µM (inactive) | GI50 (OVCAR-5): > 100 µM (inactive) | GI50 (SN12C): > 100 µM (inactive) | GI50 (OVCAR-8): > 100 µM (inactive) | GI50 (SF-539): > 100 µM (inactive) | GI50 (OVCAR-4): > 100 µM (inactive) | GI50 (NCI/ADR-RES): > 100 µM (inactive) | GI50 (786-0): > 100 µM (inactive) | GI50 (SNB-19): > 100 µM (inactive) | GI50 (RXF 393): > 100 µM (inactive) | GI50 (EKVX): > 100 µM (inactive) | GI50 (SW-620): > 100 µM (inactive) | GI50 (CAKI-1): > 100 µM (inactive) | GI50 (HCT-116): > 100 µM (inactive) | GI50 (MDA-MB-231): > 100 µM (inactive) | GI50 (LOX IMVI): > 100 µM (inactive) | GI50 (SF-295): > 100 µM (inactive) | GI50 (UACC-62): > 100 µM (inactive) | GI50 (NCI-H460): > 100 µM (inactive) | GI50 (SK-OV-3): > 100 µM (inactive) | GI50 (SF-268): > 100 µM (inactive) | GI50 (HOP-62): > 100 µM (inactive) | GI50 (HCC 2998): > 100 µM (inactive) | GI50 (PC-3): > 100 µM (inactive) | GI50 (SNB-75): 29.1 µM (inactive) | GI50 (MCF7): > 100 µM (inactive) | GI50 (HL-60): > 100 µM (inactive) | GI50 (HOP-92): > 100 µM (inactive) | GI50 (A549): > 100 µM (inactive) | GI50 (MOLT-4): > 100 µM (inactive) | GI50 (Hs-578T): > 100 µM (inactive) | GI50 (CCRF-CEM): > 100 µM (inactive) | GI50 (RPMI-8226): > 100 µM (inactive) | GI50 (SK-MEL-28): > 100 µM (inactive) | GI50 (NCI-H23): > 100 µM (inactive) | GI50 (A498): > 100 µM (inactive) | GI50 (COLO 205): > 100 µM (inactive) | GI50 (HCT-15): > 100 µM | GI50 (SK-MEL-2): > 100 µM (inactive) | GI50 (BT-549): > 100 µM (inactive) | GI50 (UACC-257): > 100 µM (inactive) | GI50 (NCI-H522): > 100 µM (inactive) | GI50 (IGROV-1): > 100 µM (inactive) | GI50 (OVCAR-3): > 100 µM (inactive)
